Experimental data reported in patent US10160716B2, “Compounds and methods of use thereof for treating tumors” (Georgetown University, priority 2012, dated 2018).
Values belong to the compound of their own block, whether it stands above or below them.

Legend:
MCF-7 cells = assay: E2 stimulated proliferation of MCF-7 cells (cell counts); format: cell-based, human
From the text: Briefly, cells were inoculated into 12-well dishes at 1×10^4 cells per well on day 0 in 5% charcoal-stripped serum (CSS). […] Triplicate wells were counted on days 1-4 to determine the effect of 103(f) on cell growth.

ER-α = target: T1, ER-α (Homo sapiens, UniProt P03372); assay: ERE-TK-Luc reporter assay of E2-stimulated ER-α transcriptional activity in MCF-7 cells; format: cell-based; conditions: for IC80: MCF7, read-out: IC80 (concentration required for inhibition of ER-α activity by 80%); for IC50: read-out: IC50 (concentration required for inhibition of ER-α activity by 50%)
T1 construct: endogenous in cells; host or cells: MCF-7
T1 sequence (P03372 1-595): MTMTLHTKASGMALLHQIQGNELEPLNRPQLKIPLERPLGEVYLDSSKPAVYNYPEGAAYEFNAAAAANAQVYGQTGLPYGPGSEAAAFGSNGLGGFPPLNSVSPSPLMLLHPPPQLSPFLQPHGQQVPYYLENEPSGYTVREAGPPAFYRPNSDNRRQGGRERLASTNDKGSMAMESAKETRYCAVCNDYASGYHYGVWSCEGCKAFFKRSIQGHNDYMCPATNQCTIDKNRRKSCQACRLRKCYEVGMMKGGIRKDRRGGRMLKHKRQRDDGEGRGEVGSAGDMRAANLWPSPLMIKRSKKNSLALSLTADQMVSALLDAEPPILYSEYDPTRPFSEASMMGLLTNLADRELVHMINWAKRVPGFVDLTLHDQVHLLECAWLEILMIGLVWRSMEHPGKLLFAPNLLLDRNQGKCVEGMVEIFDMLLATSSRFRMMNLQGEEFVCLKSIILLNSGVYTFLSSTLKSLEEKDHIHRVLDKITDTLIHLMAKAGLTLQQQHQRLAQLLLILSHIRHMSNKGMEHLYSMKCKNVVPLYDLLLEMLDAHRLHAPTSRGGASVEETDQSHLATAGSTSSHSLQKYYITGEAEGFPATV
Description: Briefly, MCF7 or T47D cells are transfected overnight with an ERE-TK-Luc reporter construct. An ERE-TK-Luc construct contains an estrogen response element (ERE) upstream of a minimal thymidine kinase (TK) promoter that drives the expression of the luciferase (Luc) reporter gene. After transfection, the cells are subsequently washed and allowed to recover for several hours. […] The cells are subsequently harvested for luciferase reporter assays.
Three compounds were tested for their ability to inhibit ER-α activity. […] Initially, each compound was tested at doses of 1 μM and 50 μM.

LCC2 = conditions: LCC2, ER-α +; cited from earlier work
MCF-7 = conditions: MCF-7, ER-α +; cited from earlier work
LCC1 = conditions: LCC1, ER-α +; cited from earlier work
LCC9 = conditions: LCC9, ER-α +; cited from earlier work

IC80 (ER-α): 5 µM
IC50 (ER-α): 3 µM
Structure (SMILES): CC(C)=CC1C(COC(=O)c2cc3c(cc2Cl)OCO3)C1(C)C (stereo not drawn) [Compound 103(f)]
effect on E2-stimulated cell growth (MCF-7 cells; 5 μM or 20 μM in the presence of 10 nM E2, P<0.01): blocked most of the E2-stimulated cell growth
effect on cell growth, compound alone (MCF-7 cells; 5 μM or 20 μM, without E2, compared with DMSO, days 1-4): little or no effect on cell growth

IC80 (ER-α): 50 µM
IC50 (ER-α): 4 µM
Structure (SMILES): O=C(O)CCCc1ccc2ccccc2c1 [Compound 201]

IC80 (ER-α): 40 µM
IC50 (ER-α): 12 µM
Structure (SMILES): Nc1nc(Cc2ccccc2)nc(Cc2ccccc2)c1-c1ccccc1 [Compound 301]

The remaining lines, values behind:

Structure (SMILES): C[C@]12CC[C@@H]3c4ccc(O)cc4CC[C@H]3[C@@H]1CC[C@@H]2O [Compound E2, 17β-estradiol]
Response to Estradiol (E2) (LCC2): E2-dependent growth
Response to Estradiol (E2) (MCF-7): E2-responsive; E2-dependent growth
Response to Estradiol (E2) (LCC1): Partially E2-depenedent growth
Response to Estradiol (E2) (LCC9): E2-insensitive growth; some E2-responsive
cell density by day 4 (MCF-7 cells; DMSO+E2 (10 nM), seeded 1×10^4 cells per well, 2% CSS): 9×10^4 cells per well

Structure (SMILES): C[C@]12CC[C@@H]3c4ccc(O)cc4C[C@@H](CCCCCCCCC[S+]([O-])CCCC(F)(F)C(F)(F)F)[C@H]3[C@@H]1CC[C@@H]2O (stereo partly drawn) [Fulvestrant]
Response to Fulvestrant (LCC2): Sensitive
Response to Fulvestrant (MCF-7): Sensitive
Response to Fulvestrant (LCC1): Sensitive
Response to Fulvestrant (LCC9): Resistant

Structure (SMILES): CC/C(=C(\c1ccccc1)c1ccc(OCCN(C)C)cc1)c1ccccc1 [Tamoxifen]
Response to Tamoxifen (LCC2): Resistant
Response to Tamoxifen (MCF-7): Sensitive
Response to Tamoxifen (LCC1): Sensitive
Response to Tamoxifen (LCC9): Resistant
